The target of assay [1] is T1, Phosphatidylinositol 4,5-bisphosphate 3-kinase catalytic subunit delta isoform (Homo sapiens) (UniProt O00329).
T1 sequence (whole entry): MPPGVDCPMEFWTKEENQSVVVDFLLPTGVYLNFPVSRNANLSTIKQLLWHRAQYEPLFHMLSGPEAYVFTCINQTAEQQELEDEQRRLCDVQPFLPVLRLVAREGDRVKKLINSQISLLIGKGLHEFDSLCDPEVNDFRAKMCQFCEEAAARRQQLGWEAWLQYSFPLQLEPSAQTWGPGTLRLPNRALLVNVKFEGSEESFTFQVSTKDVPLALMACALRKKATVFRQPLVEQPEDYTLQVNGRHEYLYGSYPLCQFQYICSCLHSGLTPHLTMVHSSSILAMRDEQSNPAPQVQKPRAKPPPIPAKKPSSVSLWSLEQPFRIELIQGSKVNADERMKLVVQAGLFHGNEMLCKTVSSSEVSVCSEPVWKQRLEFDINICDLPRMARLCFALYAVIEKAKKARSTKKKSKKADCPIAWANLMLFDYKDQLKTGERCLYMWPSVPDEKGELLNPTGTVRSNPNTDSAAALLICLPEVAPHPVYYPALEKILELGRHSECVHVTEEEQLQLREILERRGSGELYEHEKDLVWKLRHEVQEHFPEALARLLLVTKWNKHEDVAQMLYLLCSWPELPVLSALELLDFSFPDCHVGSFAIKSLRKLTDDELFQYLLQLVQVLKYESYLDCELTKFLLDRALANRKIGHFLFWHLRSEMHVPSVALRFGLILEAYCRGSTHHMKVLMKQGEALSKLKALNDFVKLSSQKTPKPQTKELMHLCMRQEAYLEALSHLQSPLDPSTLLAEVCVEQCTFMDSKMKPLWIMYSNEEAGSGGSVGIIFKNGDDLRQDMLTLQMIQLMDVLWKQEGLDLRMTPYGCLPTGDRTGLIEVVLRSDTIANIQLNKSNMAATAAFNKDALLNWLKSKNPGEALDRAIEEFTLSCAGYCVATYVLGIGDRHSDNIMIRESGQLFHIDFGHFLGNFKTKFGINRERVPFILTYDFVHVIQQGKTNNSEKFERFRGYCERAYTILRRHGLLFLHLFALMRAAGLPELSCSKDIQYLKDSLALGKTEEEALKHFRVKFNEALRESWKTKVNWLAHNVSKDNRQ
The experiment in a line: Inhibition of PIK3CD at 1 uM.

Assay [2] has as its target Cyclin-dependent kinase-like 3 (Homo sapiens) (UniProt Q8IVW4). Briefly: Inhibition of CDKL3 at 1 uM.
The target in assay [3] is T2, Myosin light chain kinase family member 4 (Homo sapiens) (UniProt Q86YV6).
T2 sequence (whole entry): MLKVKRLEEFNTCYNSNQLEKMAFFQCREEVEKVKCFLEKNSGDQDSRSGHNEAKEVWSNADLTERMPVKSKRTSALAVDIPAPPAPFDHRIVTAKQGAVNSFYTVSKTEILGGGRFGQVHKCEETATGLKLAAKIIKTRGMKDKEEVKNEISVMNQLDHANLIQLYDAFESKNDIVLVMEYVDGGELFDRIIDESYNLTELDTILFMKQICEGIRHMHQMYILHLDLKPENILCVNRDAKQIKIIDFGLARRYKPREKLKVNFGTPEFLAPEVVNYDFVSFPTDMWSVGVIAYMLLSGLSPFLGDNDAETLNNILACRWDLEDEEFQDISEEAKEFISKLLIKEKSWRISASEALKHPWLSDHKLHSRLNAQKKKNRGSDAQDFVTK
The experiment in a line: Inhibition of SgK085 at 1 uM.

Assay [4] deals with Mitogen-activated protein kinase 4 (Homo sapiens) (UniProt P31152). The experiment in a line: Inhibition of ERK4 at 1 uM.
Chain of Mitogen-activated protein kinase 4 (Homo sapiens) (P31152 whole entry): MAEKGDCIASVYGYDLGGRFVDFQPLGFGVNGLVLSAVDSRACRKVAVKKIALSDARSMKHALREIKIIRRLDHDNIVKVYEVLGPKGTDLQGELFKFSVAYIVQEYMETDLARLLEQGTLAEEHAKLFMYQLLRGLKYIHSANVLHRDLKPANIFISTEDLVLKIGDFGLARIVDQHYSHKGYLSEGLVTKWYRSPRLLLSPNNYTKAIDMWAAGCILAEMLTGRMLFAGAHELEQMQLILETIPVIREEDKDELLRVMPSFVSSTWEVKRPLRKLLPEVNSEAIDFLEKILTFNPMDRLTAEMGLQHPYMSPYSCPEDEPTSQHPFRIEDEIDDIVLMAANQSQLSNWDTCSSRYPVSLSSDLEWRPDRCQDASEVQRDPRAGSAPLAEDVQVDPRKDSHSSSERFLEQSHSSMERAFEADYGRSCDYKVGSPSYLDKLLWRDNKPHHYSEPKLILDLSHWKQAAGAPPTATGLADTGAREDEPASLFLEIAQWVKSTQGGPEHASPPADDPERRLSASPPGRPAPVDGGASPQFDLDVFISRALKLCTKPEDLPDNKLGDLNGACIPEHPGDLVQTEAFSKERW
Assay [5] concerns the target T3, Mitogen-activated protein kinase kinase kinase 13 (Homo sapiens) (UniProt O43283).
T3 sequence (whole entry): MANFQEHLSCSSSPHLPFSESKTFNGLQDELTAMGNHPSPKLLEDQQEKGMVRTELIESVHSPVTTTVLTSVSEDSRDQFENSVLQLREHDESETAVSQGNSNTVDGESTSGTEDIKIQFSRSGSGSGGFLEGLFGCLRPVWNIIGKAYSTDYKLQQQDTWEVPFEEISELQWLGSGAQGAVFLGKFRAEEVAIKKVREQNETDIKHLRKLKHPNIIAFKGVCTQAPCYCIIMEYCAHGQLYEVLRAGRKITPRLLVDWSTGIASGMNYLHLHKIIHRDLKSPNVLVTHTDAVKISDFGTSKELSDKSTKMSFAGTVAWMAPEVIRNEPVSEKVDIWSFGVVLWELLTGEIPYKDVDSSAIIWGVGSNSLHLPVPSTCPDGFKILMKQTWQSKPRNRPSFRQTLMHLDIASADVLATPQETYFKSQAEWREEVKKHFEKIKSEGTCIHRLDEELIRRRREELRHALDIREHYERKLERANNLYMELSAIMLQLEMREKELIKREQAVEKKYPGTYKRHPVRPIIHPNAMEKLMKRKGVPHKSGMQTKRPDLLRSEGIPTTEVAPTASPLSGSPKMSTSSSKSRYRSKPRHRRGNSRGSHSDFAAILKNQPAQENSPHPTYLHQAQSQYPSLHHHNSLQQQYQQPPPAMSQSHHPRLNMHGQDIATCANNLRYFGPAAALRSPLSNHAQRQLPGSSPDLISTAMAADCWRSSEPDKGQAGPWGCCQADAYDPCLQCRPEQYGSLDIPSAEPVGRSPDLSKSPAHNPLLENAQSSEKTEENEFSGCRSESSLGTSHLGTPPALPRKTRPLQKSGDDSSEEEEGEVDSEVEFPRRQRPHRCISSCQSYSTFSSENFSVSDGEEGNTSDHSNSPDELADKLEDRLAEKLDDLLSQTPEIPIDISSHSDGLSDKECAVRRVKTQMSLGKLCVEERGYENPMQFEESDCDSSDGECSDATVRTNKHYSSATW
Briefly: Inhibition of LZK at 1 uM.

The target of assay [6] is Serine/threonine-protein kinase PLK2 (Homo sapiens) (UniProt Q9NYY3). Briefly: Inhibition of PLK2 at 1 uM.
Chain of Serine/threonine-protein kinase PLK2 (Homo sapiens) (Q9NYY3 whole entry, looked up): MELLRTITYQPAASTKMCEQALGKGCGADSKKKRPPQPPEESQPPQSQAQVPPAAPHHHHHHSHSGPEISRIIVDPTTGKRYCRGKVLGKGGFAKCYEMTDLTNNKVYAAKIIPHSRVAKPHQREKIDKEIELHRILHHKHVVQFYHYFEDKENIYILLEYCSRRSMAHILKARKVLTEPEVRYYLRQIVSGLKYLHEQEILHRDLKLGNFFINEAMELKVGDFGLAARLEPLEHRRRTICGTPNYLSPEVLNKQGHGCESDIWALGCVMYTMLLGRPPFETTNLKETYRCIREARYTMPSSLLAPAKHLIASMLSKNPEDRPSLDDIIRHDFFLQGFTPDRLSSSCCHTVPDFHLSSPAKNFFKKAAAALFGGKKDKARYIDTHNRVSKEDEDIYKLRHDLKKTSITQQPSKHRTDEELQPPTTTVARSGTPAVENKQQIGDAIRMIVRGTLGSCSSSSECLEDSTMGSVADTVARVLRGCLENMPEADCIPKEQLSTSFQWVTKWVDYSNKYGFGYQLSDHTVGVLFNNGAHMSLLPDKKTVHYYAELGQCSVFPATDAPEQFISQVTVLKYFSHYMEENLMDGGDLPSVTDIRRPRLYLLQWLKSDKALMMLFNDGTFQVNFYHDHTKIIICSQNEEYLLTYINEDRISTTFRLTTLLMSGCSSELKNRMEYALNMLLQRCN
Assay [7] addresses Receptor tyrosine-protein kinase erbB-3 (Homo sapiens) (UniProt P21860). The experiment in a line: Inhibition of ERBB3 at 1 uM.

Data on 6 molecules can be found in ChEMBL document CHEMBL1165965, “Synthesis and structure-activity relationships of 1,2,3,4-tetrahydropyrido[2,3-b]pyrazines as potent and selective inhibitors of the anaplastic lymphoma kinase” (Bioorg Med Chem, 2010).

Chain of Receptor tyrosine-protein kinase erbB-3 (Homo sapiens) (P21860 whole entry): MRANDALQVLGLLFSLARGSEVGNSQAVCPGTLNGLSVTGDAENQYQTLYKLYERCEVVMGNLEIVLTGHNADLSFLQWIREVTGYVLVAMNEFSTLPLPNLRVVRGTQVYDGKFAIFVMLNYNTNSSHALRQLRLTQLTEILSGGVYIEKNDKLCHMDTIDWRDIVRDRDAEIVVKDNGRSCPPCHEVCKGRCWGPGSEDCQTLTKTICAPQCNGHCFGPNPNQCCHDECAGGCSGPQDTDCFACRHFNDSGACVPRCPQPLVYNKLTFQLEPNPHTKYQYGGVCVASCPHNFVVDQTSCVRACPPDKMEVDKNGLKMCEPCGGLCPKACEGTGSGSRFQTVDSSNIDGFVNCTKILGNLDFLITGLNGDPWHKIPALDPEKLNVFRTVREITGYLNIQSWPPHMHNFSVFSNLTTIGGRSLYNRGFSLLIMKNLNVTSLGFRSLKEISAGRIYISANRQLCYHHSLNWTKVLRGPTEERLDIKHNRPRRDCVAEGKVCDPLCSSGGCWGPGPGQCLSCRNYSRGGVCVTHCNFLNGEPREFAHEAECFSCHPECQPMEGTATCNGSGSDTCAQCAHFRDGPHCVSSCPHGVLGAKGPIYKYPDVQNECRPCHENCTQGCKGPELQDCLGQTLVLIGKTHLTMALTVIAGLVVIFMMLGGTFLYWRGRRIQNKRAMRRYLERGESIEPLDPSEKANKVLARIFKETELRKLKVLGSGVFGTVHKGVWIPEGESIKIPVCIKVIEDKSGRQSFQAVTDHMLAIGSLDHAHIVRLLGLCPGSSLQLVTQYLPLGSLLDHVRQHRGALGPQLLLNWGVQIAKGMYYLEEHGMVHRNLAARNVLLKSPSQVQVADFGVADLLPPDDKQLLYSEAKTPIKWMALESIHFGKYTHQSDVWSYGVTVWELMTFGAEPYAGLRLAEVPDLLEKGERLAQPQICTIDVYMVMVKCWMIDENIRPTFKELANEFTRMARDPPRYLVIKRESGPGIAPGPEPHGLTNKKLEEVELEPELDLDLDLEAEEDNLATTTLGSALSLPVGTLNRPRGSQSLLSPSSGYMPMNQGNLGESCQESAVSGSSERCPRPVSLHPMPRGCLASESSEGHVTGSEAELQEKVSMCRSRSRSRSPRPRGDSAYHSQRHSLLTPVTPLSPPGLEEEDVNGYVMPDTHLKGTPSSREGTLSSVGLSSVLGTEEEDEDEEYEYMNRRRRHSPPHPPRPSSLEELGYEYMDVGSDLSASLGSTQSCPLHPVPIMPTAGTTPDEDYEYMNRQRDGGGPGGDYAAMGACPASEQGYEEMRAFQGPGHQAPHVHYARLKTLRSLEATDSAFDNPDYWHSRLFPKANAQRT
Chain of Cyclin-dependent kinase-like 3 (Homo sapiens) (Q8IVW4 whole entry, looked up): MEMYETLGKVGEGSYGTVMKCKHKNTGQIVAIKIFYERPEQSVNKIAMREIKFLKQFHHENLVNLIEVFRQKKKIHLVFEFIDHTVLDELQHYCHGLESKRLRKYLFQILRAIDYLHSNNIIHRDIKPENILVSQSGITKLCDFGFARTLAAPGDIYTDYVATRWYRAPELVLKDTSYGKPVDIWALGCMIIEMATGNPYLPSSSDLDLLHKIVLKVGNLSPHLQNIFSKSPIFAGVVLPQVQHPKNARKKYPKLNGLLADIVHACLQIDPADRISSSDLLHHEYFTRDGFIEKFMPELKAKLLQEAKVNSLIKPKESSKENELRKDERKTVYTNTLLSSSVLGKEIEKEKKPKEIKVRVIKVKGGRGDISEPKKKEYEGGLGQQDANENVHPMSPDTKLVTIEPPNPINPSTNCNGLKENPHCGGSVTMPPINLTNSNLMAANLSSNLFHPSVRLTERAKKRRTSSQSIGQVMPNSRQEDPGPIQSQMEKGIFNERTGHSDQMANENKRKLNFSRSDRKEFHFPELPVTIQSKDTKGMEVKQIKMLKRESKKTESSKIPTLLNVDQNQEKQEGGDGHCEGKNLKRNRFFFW

The term inhibition denotes the drop in the measured response relative to a control, in per cent. Higher therefore signals strong suppression. `FC(F)(F)c1ccc(Cl)cc1CN1CCNc2ncc(-c3ccnc(N4CCNCC4)c3)cc21`: the inhibition in assay [1], in assay [2], in assay [3], in assay [4], in assay [5] and in assay [6] was < 50% each time. For the same molecule, the inhibition in assay [7] is < 50%.
As for `CN1CCN(c2ccc(-c3cnc4c(c3)N(Cc3cc(F)ccc3F)CCN4)cn2)CC1`, the inhibition in assay [1], in assay [2], in assay [3], in assay [4], in assay [5] and in assay [6] was < 50% throughout. Moreover, the inhibition in assay [7] was < 50%.
Consider `CN1CCN(c2ccc(-c3cnc4c(c3)N(Cc3cc(Cl)ccc3Cl)CCN4)cn2)CC1`, for which the inhibition in assay [1], in assay [2], in assay [3], in assay [4], in assay [5] and in assay [6] was < 50% each time. The inhibition in assay [7] was < 50%.
As for `CN1CCN(c2ccc(-c3cnc4c(c3)N(Cc3cc(Cl)ccc3C(F)(F)F)CCN4)cn2)CC1`, the inhibition in assay [1], in assay [2], in assay [3], in assay [4], in assay [5] and in assay [6] was < 50% each time. Also, the inhibition in assay [7] is < 50%.
As to `CN1CCN(c2ccc(-c3cnc4c(c3)N(Cc3c(F)ccc(F)c3Cl)CCN4)cn2)CC1`, the inhibition in assay [1], in assay [2], in assay [3], in assay [4], in assay [5] and in assay [6] was < 50% in each case. Moreover, the inhibition in assay [7] was < 50%.
On to `CC(=O)N1CCN(c2cc(-c3cnc4c(c3)N(Cc3cc(Cl)ccc3C(F)(F)F)CCN4)ccn2)CC1`, for which the inhibition in assay [1] is < 50%; in assay [2], < 50%; in assay [3] it was < 50%; in assay [4], < 50%; in assay [5] it was < 50%; in assay [6], 82%. Moreover, in assay [7], the inhibition was < 50%.
